# Where two headings read alike, the source gives them in different places.
# B1: IL18BP: Interleukin-18 Binding Protein, naturally occurring IL18 antagonist, soluble protein with a single Ig domain; positive control (protein, UniProt O95998 31-194, looked up)
# Interleukin-18-binding protein: TPVSQTTTAATASVRSTKDPCPSQPPVFPAAKQCPALEVTWPEVEVPLNGTLSLSCVACSRFPNFSILYWLGNGSFIEHLPGRLWEGSTSRERGSTGTQLCKALVLEQLTPALHSTNFSCVLVDPEQVVQRHVVLAQLWAGLRATLPPTQEALPSSHSSPQQQG
# Tests used:
# [1] = tested on: human saphenous vein segments; assay: Cytokine expression in human saphenous vein ex vivo (LPS challenge, multiplex ELISA); format: cell-based; details: LPS 100 ng/ml + compound 10 μM, 18 hours, culture supernatant
# From the text: Example 2. Cytokine Expression in Human Saphenous Vein Ex Vivo
# In this example, a cytokine storm/inflammation common to many vascular conditions has been modeled by challenging human saphenous vein segments with lipopolysaccharide (LPS). Discarded human saphenous vein samples were collected from patients undergoing peripheral bypass grafting.
# Samples were subjected to Human (h) TheRPA (Therapeutic Responses Predictor Assay) which is based on ex-vivo treatment of biopsies (explant cultures). The tissues were transferred to the lab within 30 min of their harvesting and cultured in DMEM+10% FBS+1% antibiotic/antimycotic (DMEM plus glucose, glutamine, sodium pyruvate: Gibco 11995-065; Heat Inactivated FBS: Gibco 16140-089; Antibiotic-Antimycotic: Gibco 15240-096) in the presence of vehicle, LPS (100 ng/ml) or LPS (100 ng/ml)+compound 1/compound 10/compound 15 (10 μM). After 18 hours, culture supernatants were collected and kept at −80° C. Cytokine levels in cell culture supernatant were measured by multiplex ELISA (Milliplex map human cytokine/chemokine magnetic bead kit from Millipore).
# [2] = tested on: IFN-γ gene expression in NK92 cells; assay: IFN-γ gene expression induction in NK-92 cells (qRT-PCR); format: cell-based; details: 24 hours
# Method: IFN-γ Gene Expression Induction in NK-92 Cells
# IFN-γ gene and protein expression induction is a standard to measure IL-18 activity in NK92 cells (Kalina et al., J. Immunol. 165:1307-1313, 2000).
# NK92 cells were treated with 1 μM concentration of compounds 1, 10, or […]. […] 24 hours after treatment, total RNA was harvested and qRT-PCR was conducted using a previously published protocols (Raof et al., BMC Genomics, 17-20, 2016; Monahan et al., FASEB J., 23:557-564, 2009) to measure the gene expression of IFN-γ.
# [3] = target: T1, IL18 (Homo sapiens, UniProt Q14116); assay: Microscale Thermophoresis (MST) binding; set-up: Recombinant IL18 was fluorescently labelled using the lysine reactive Pico RED NT647 dye
# T1 sequence (Q14116 37-193): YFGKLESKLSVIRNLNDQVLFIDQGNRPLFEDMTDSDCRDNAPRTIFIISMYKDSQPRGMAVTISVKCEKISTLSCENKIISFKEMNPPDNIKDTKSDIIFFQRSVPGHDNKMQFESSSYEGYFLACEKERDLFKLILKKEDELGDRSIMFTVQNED
# Method: Microscale Thermophoresis
# Recombinant IL18 was fluorescently labelled using the lysine reactive Pico RED NT647 dye from NanoTemper Technologies and stored in a PBS buffer containing 0.05% TWEEN (Buffer A). Stock concentration of labelled IL18 was […]. Working concentrations of IL18 were diluted in Buffer A to 10, 40, or 50 nM. Except for the positive control, IL18BP, stock concentration for all compounds, or ligands, was 10-25 mM in 100% DMSO. Ligands were diluted in Buffer A to working concentrations of 50-500 μM. Containing 0.8-2% DMSO. Stock concentration of IL8BP, was 50 μM, stored in 20 mM Tris-HI buffer (pH 8.0) containing 0.4 M Urea and 10% glycerol (Buffer B). Prior to MST experiments being performed 16 preparations of two-fold serial dilutions of ligand in uniform buffer, starting with the working Uigand concentration, were incubated with equal volumes of a fixed concentration of labelled IL8. After 30 minutes incubation at room temperature, 16 Monolith NT. 15 standard capillaries were loaded with 10 μl volumes of each of the ligand/IL18 preparations. Tests described in Results were run at 3700.
# Experiments were performed on a Monolith NT.115Pico machine (NanoTemper Technologies GmbH, Germany). Data quality and analysis and graphic rendering were performed using MO.Affinity Analysis v2.3 software from NanoTemper technologies. Evaluation strategy for all analyses was standardized to measure relative change of fluorescence (FNorm %) over a 2.5 second of laser induced temperature shift per capillary. Statistical analysis was performed using NanoTemper's MOControl software. The results of this assay for compounds 1, 10, and 15 are shown in FIGS. 7, 8, 9A, 9B, and […] and Table 3 describes the MST assay conditions.
# [4] = tested on: IL18; assay: HEK-Blue IL18 cell reporter assay (SEAP); format: cell-based; details: Phase I; HEK-Blue IL18 cells, co-treated with recombinant human IL18 15 pM-100 pM, 18 hours; FIGS. 1A-1D
# Method: HEK-Blue IL18 Cell Reporter Assay
# HEK-Blue IL18 Cells (Invivogen California, USA), are a derivative of HEK293 cells that have been stably transfected with IL18Rα/IL18RAP genes and a SEAP reporter gene that is expressed and secreted in specific response to IL18. Cells were grown in […] tissue culture flasks with DMEM culture medium containing 4.5 g/L glucose, 10% (v/v) heat-inactivated fetal bovine serum, 50 μ/mL penicillin, 50 μg/mL streptomycin, 100 μg/mL Normocin and 2 mM L-glutamine at 37° C. in 5% CO2.
# Stock concentration of IL18 was 750 μM stored in Tris-HCl buffer at −80° C. For treatment use, compounds were diluted in sterile PBS to 100 times the intended treatment concentration and administered into wells containing 198 μl media at volumes of 2 μl. Total DMSO contents for all vehicles was less than 0.02% prior to treatment, and less than 0.0002% within wells following treatment.
# HEK-Blue IL18 cells were transferred from flasks and seeded at 40-50% confluency on 96-well culture plates 6 hours prior to treatment.
# Phase I: Cells were treated with compounds at concentrations of […], 7.5 pM, and 1.5 pM, with three replicate wells for each concentration, and six replicate wells with no compound treatment (NT). All wells were then immediately co-treated with recombinant human IL18 at one concentration between 15 pM-100 pM. Following treatments, cells were incubated at 37° C. in 5% CO2 for 18 hours. Cell confluency typically reached 70-80% (˜80,000-100,000 cells per well) by this point, 24 hours after seeding.
# To detect SEAP activity, 20 μL supernatant from each well was transferred and mixed with 180 μl alkaline phosphatase detection medium (QUANTi-Blue, InvivoGen, California, USA), in a separate 96-well plate and incubated for 3 hours at room temperature. Supernatant SEAP activity was measured by reading the optical density (OD) at 640 nm using a spectrophotometer. OD values were standardized to NT mean=1.
# Statistical analysis was performed GraphPad Prism (California, USA) software. One-Way analysis of variance (ANOVA) with Dunnett's post-hoc analysis was used to determine significant variation between treatment and control (NT) groups treated only with IL18.
# [5] = tested on: Primary human saphenous vein endothelial cells (EC); assay: Alamar Blue assay for cell toxicity and proliferation, endothelial cells; format: cell-based; details: 10 nM-10 μM, up to 76 hours; FIGS. 3A-3C
# From the text: Alamar Blue Assay for Cell Toxicity and Proliferation
# [6] = tested on: Primary human saphenous vein smooth muscle (SMC); assay: Alamar Blue assay for cell toxicity and proliferation, smooth muscle cells; details: 10 nM-10 μM, up to 72 hours; FIGS. 3D-3F, 4A, 4B
# Method: Primary human saphenous vein smooth muscle (SMC) and endothelial cells (EC) were left untreated or treated with inhibitor compounds (10 nM-10 μM) for a period of 3-4 days. Cell proliferation was measured using our previously published Alamar Blue Assay (Monahan et al., FASEB J., 23:557-564, 2009; Yoshida et al., J. Am. Coll. Surg. 213:668-67, 2011).
# [7] = tested on: IFN-γ gene expression in NK92 cells; details: Kalina et al., J. Immunol. 2000; positive control; cited from earlier work
# [8] = target: T1, IL18; details: background statement; read-out: affinity for hIL18; cited from earlier work
# [9] = FIG. 6, compound 1 μM, no treatment 1.33±0.85
# [10] = labelled IL18, 37.0° C., n 2, Table 3
# [11] = FIG. 5, compound 1 μM, no treatment 1.06±0.38
molecule,measurement,setting,value
Nc1cccc(Cc2cccc(N)c2)c1 [Compound 1],IL-6 expression,[1],significantly inhibited
same,IL-8 expression,[1],significantly inhibited
same,TNF expression,[1],significantly inhibited
same,IFN-γ expression,[2]; [9],0.04±0.02
same,Kd,[3]; FIGS. 9A-9C,60.6 nM
same,Kd,[3]; [10],60.6 nM
same,IL-18 activity (SEAP reporter),[4],significantly reduce IL-18 activity
CC(C)c1ccc(NC(=N)NC(=N)N)cc1 [Compound 15],toxicity in EC (Alamar Blue),[5],no toxicity
same,IFN-γ expression,[2]; [11],0.99±0.38
same,Kd,[3]; FIG. 9C,5600 nM
same,Kd,[3]; [10],5640 nM
same,toxicity in SMC (Alamar Blue),[6],no toxicity
same,IL-18 activity (SEAP reporter),[4],significantly reduce IL-18 activity
O=C1c2nn[nH]c2C(=O)c2nn[nH]c21 [Compound 10],IL-6 expression,[1],significantly inhibited
same,IL-8 expression,[1],significantly inhibited
same,TNF expression,[1],significantly inhibited
same,Kd,[3]; FIGS. 9A-9C,2.27 nM
same,Kd,[3]; [10],2.27 nM
same,toxicity in SMC (Alamar Blue),[6],no toxicity
same,IL-18 activity (SEAP reporter),[4],significantly reduce IL-18 activity
"IL-18: Interleukin-18, pro-inflammatory cytokine used as stimulus of IFN-γ expression",IFN-γ expression,[2]; [11],5.52±3.43
same,IFN-γ expression,[2]; [9],7.9±7.23
C[S+]([O-])c1ccc(-c2nc(-c3ccc(F)cc3)c(-c3ccncc3)[nH]2)cc1 (stereo not drawn) [Compound 1V],IFN-γ expression in NK92 cells (literature statement),[7],known inhibitor of IFN-γ expression in NK92 cells
Cc1ccc(Cc2ccc(C)c(N)c2)cc1N [Compound 5],IL-6 expression,[1],significantly inhibited
same,IL-8 expression,[1],significantly inhibited
same,TNF expression,[1],significantly inhibited
B1,Kd,[3]; FIGS. 9A-9C,1.85 nM
same,Kd,[3]; [10],1.85 nM
same,IL-18 activity (SEAP reporter),[4],significantly reduce IL-18 activity
same,Kd,[8],0.4 nM
